# Experimental data taken from patent US6180624A (priority 1994, dated 2001).
# “Also recorded” adds a separate entry of the source. Read-outs that look alike come from different tables or passages of the source.
# Columns and labels:
# [1] = test system: nociceptive spinal reflexes; assay: animal or person; format: in vivo, rabbit (male New Zealand white); conditions: for ED50: Oryctolagus cuniculus, iv; for Effect on baseline, facilitation and wind-up responses: all three measures, FIG. 1, 2, 4
# Procedure: Male New Zealand white rabbits (2.5-3.5 kg) were anaesthetised by an injection of 0.9% alphaxalone and 0.3% alphadolone (Saffan) directly into an ear vein. A cervical spinalization was performed and the cerebral cortex removed (decerebration) allowing anaesthesia to be discontinued. The left hind limb was shaved and a bipolar recording electrode inserted into the biceps femoris/semitendinous muscle. A noxious stimulus was applied to the area of the receptive field of the motor units to the skin of the foot. Single shocks (1 ms square pulses; 2 times threshold) were applied at a rate of 1 per minute. The conditioning stimulus was 20 of these impulses at a rate of 1 Hz, producing wind-up. The baseline parameters were again applied 20 seconds following the conditioning stimulus, the first of these stimuli is termed the facilitation of the baseline response. Injections were administered at 15 minute intervals, the first two always being the relevant drug vehicle. The time-course of events throughout the experiment was as shown below:
# t=0 mins: Dose with vehicle (i.v.).
# t=40 sec: Begin baseline stimulation (1 per minute).
# t=10 mins: Conditioning stimulus applied (20 @ 1 Hz; wind-up).
# t=10 mins 40 secs: Baseline stimulation resumes (Initial baseline response equates to facilitation).
# t=15 mins: Dose with vehicle (i.v.).
# t=25 mins: Conditioning stimulus applied.
# t=25 mins 40 secs: Baseline stimulation resumes.
# t=30 mins: Dose with test compound (i.v.).
# t=40 mins: Conditioning stimulus applied.
# t=40 mins 40 secs: Baseline stimulation resumes.
# t=45 mins and every 15 minutes thereafter: Drug treatment (i.v.).
# t=55 mins and every 15 minutes thereafter: Conditioning stimulus applied.
# 40 seconds after each conditioning stimulus baseline stimulation is resumed.
# In each experiment the values obtained to the second vehicle were used as the control response. Each of the values obtained with drug treatment was expressed as a percentage of the control response. In the case of changes in baseline the last four values obtained prior to the conditioning response were taken to represent baseline activity. The effect of drug treatment was determined by comparing the baseline post-drug to the control baseline. Four rabbits were used in each experiment unless otherwise stated.
# [2] = test system: morphine-induced emesis; conditions: ferrets; cited from earlier work
# [3] = test system: formalin test; conditions: Garret et al.; cited from earlier work
# [4] = test system: phenylbenzoquinone-induced writhing; conditions: Garret et al.; cited from earlier work
# [5] = baseline, i.v., decerebrate, spinalized rabbit, read-out: Approximate ID50, inhibition of baseline firing rate
# [6] = facilitation, i.v., decerebrate, spinalized rabbit, read-out: Approximate ID50, inhibition of facilitation
# [7] = wind-up, i.v., decerebrate, spinalized rabbit, read-out: Approximate ID50, inhibition of wind-up
smiles,measurement,setting,value
"COc1ccccc1CN[C@H]1CCCN[C@H]1c1ccccc1 [CP-99,994]",Facilitation of nociceptive spinal reflexes,"[1]; CP-99,994 1-100 μg/kg i.v.",reduce facilitation of nociceptive spinal reflexes
same,ED50,[1]; [5],0.05 mg/kg
same,ED50,[1]; [6],0.008 mg/kg
same,ED50,[1]; [7],0.01 mg/kg
same,"Effect on baseline, facilitation and wind-up responses",[1]; i.v.,dose-dependent reduction in all three measures
same,"Antagonism of the anti-nociceptive effects of morphine by CP-99,994","[1]; rabbit, in vivo",not antagonised
same,"Effect of CP-99,994 and morphine given together on the nociceptive reflex","[1]; rabbit, in vivo",appeared to be additive to those of morphine
same,Emetic response to morphine,[2],attenuate the emetic response to morphine
"COc1ccccc1CN[C@@H]1CCCN[C@@H]1c1ccccc1 [CP-100,263]",ED50,[1]; [5],> 1 mg/kg
same,ED50,[1]; [6],> 1 mg/kg
same,ED50,[1]; [7],> 1 mg/kg
same,"Effect on baseline, facilitation and wind-up responses",[1]; i.v.,"did not inhibit baseline, facilitation or wind-up responses; also recorded: lack of effect"
"CN1CC[C@]23c4c5ccc(O)c4O[C@H]2[C@@H](O)C=C[C@H]3[C@H]1C5 [Morphine, morphine]","Approximate ID50, inhibition of baseline firing rate","[1]; baseline, i.v., decerebrate, spinalized rabbit",0.5 mg/kg
same,"Approximate ID50, inhibition of facilitation","[1]; facilitation, i.v., decerebrate, spinalized rabbit",0.5 mg/kg
same,"Effect of morphine pre-treatment on CP-99,994 induced inhibition of each measure","[1]; morphine 0.5 mg/kg i.v. prior to CP-99,994 dose response curve, FIG. 3","failed to attenuate the CP-99,994 induced inhibition of each measure"
same,"Approximate ID50, inhibition of wind-up","[1]; wind-up, i.v., decerebrate, spinalized rabbit",0.5 mg/kg
"COc1ccccc1CC(=N)N1C[C@@H]2C(=O)CCC(c3ccccc3)(c3ccccc3)[C@@H]2C1 [RP 67,580]","Analgesia potency relative to morphine, formalin test",[3],potency comparable to that of morphine
same,"Analgesia potency relative to morphine, phenylbenzoquinone-induced writhing",[4],potency comparable to that of morphine
